For 19 compounds, TGI and GI50 results are on record in PubChem BioAssay (NCI).

Where “and” joins values, the source holds several entries; their conditions need not be identical. Equal entries are not always repeated.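 Each compound was tested at five concentrations against cells in 96-well plates for 48 hours. GI50: concentration for 50% inhibition of growth. The concentration for full growth arrest is given as TGI.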

One test deals with SNB-75 CNS. Description: inhibition of tumour cell growth, NCI panel, 48 h.
Regarding `CCN(CC)CC(=O)N1CCc2c([nH]c3ccccc23)C1c1cccnc1` (stereo not drawn), the TGI was > 100 µM.
For `CCOC1Oc2ccccc2-c2oc(=O)c(Sc3ccc(C)cc3)cc21` (stereo not drawn), the GI50 is 32.6 µM and the TGI is > 100 µM.
As to `CC1CCCc2c1nn(C(=O)/C=C(\N)c1ccccc1)c2N` (stereo not drawn), the GI50 is 25.6 µM and the TGI is > 100 µM.
Consider `O=c1c(Cl)c(Cl)cnn1CCc1ccncc1`, for which the TGI stood at 33.2 µM.
Take `Cc1ccc(S(=O)(=O)N/N=C(\c2nc3ccc([N+](=O)[O-])cc3[nH]c2=O)C(O)c2ccccc2Cl)cc1` (stereo not drawn): the TGI is > 100 µM.
In the case of `COc1ccc(CC(C)C(C)Cc2ccc(OC)c(OC)c2)cc1OC` (stereo not drawn), the GI50 was > 1400 µM and the TGI was > 1400 µM.
Turning to `Cc1ccc2c(c1)Sc1ccc(N=NN(C)C)cc1N2C`, the TGI was > 100 µM.
Same read-out and setting: under `O=C1C2=C(c3ccccc31)C(c1ccccc1Cl)N1C(=O)CCSC1=N2` (stereo not drawn) stands > 100 µM.
For the compound `Cc1ncc(C(=O)Nc2ccc(CN3CCN(C)CC3)c(C(F)(F)F)c2)cc1C#Cc1cnc(NC2CC2)c2ncccc12`, the GI50 is 1.81 µM and the TGI stood at 5.75 µM.
As for `Cc1ccc2nc3c(Cl)c(C)c(=O)cc-3sc2c1`, the GI50 is 31.6 µM and the TGI was > 100 µM.
With `O=C/C(=C(/Cl)c1ccc(O)cc1)c1ccccc1`, the TGI is > 67.2 µM.

The test system of another test is SW-620 colon. As to the kind of experiment: inhibition of tumour cell growth, NCI panel, 48 h.
Take `CNC(=O)c1cc2c(Oc3ccc(NC(=O)C4(C(=O)Nc5ccc(F)cc5)CC4)cc3)ccnc2cc1OC`: the GI50 is 2.64 µM and the TGI is > 100 µM.
Regarding `Cc1cc(N(CCC#N)CCC#N)ccc1/C=C1N=C(/C=C/c2ccccc2)OC(=O)N\1`, the TGI was > 100 µM.
Turning to `O=S1(=O)NCCCN1CCNc1nccc(-c2c(-c3cccc(O)c3)nc3sccn23)n1`, the GI50 is 33 µM and the TGI is > 100 µM.
For the compound `O=C(c1ccc2ccccc2c1)c1c(C(F)(F)F)n([O-])c2ccc(Cl)cc2[n+]1=O`, the GI50 was 1.41 µM and the TGI is 2.7 µM.
Consider `CC(=O)OCC1OC(n2cc([N+](=O)[O-])c(=O)[nH]c2=O)C(OC(C)=O)C(OC(C)=O)C1OC(C)=O` (stereo not drawn), for which the TGI was > 100 µM.
Regarding `O=C1C=C(O)c2[nH]c(=O)ccc2C1=O`, the TGI was > 100 µM.
For `NC(=O)c1cccc(Nc2nccc(Nc3cccc(F)c3)n2)c1`, the GI50 is 7.11 µM and the TGI is > 24 µM.
In the case of `CCN(CC)CCNC(=O)c1c(C)[nH]c(/C=C2\C(=O)Nc3ccc(F)cc32)c1C`, the GI50 is 1.76 µM and 1.95 µM and 1.4 µM; the TGI was 7.67 µM and 5.22 µM and 4.22 µM.
For `CCN(CC)CC(=O)N1CCc2c([nH]c3ccccc23)C1c1cccnc1` (stereo not drawn), the TGI is > 100 µM.
With `CCOC1Oc2ccccc2-c2oc(=O)c(Sc3ccc(C)cc3)cc21` (stereo not drawn), the GI50 is 37.5 µM and the TGI is > 100 µM.
For `CC1CCCc2c1nn(C(=O)/C=C(\N)c1ccccc1)c2N` (stereo not drawn), the GI50 is 6.71 µM and the TGI was > 100 µM.
`O=c1c(Cl)c(Cl)cnn1CCc1ccncc1` had a TGI of 41.2 µM.
The same measure, in the same setting: the same measure for `Cc1ccc(S(=O)(=O)N/N=C(\c2nc3ccc([N+](=O)[O-])cc3[nH]c2=O)C(O)c2ccccc2Cl)cc1` (stereo not drawn): > 100 µM.
With `COc1ccc(CC(C)C(C)Cc2ccc(OC)c(OC)c2)cc1OC` (stereo not drawn), the GI50 was > 1400 µM and the TGI was > 1400 µM.
On to `Cc1ccc2c(c1)Sc1ccc(N=NN(C)C)cc1N2C`, for which the TGI was > 100 µM.
Turning to `O=C1C2=C(c3ccccc31)C(c1ccccc1Cl)N1C(=O)CCSC1=N2` (stereo not drawn), the TGI is > 100 µM.
Take `Cc1ncc(C(=O)Nc2ccc(CN3CCN(C)CC3)c(C(F)(F)F)c2)cc1C#Cc1cnc(NC2CC2)c2ncccc12`: the GI50 was 0.714 µM and the TGI was determined as 1.33 µM.
For the compound `Cc1ccc2nc3c(Cl)c(C)c(=O)cc-3sc2c1`, the TGI was > 100 µM.
The same measure, in the same setting: under `O=C/C(=C(/Cl)c1ccc(O)cc1)c1ccccc1` stands > 68 µM.

The test system of a further test is UACC-62 melanoma. As to the kind of experiment: inhibition of tumour cell growth, NCI panel, 48 h.
For the compound `CNC(=O)c1cc2c(Oc3ccc(NC(=O)C4(C(=O)Nc5ccc(F)cc5)CC4)cc3)ccnc2cc1OC`, the GI50 is 1.54 µM and the TGI was 15 µM.
Turning to `Cc1cc(N(CCC#N)CCC#N)ccc1/C=C1N=C(/C=C/c2ccccc2)OC(=O)N\1`, the TGI is > 100 µM.
Turning to `O=S1(=O)NCCCN1CCNc1nccc(-c2c(-c3cccc(O)c3)nc3sccn23)n1`, the GI50 was 0.0873 µM and the TGI turned out to be 5.66 µM.
Consider `O=C(c1ccc2ccccc2c1)c1c(C(F)(F)F)n([O-])c2ccc(Cl)cc2[n+]1=O`, for which the GI50 was 1.71 µM and the TGI amounted to 3.08 µM.
Regarding `CC(=O)OCC1OC(n2cc([N+](=O)[O-])c(=O)[nH]c2=O)C(OC(C)=O)C(OC(C)=O)C1OC(C)=O` (stereo not drawn), the TGI is > 100 µM.
For `O=C1C=C(O)c2[nH]c(=O)ccc2C1=O`, the TGI is > 100 µM.
For `NC(=O)c1cccc(Nc2nccc(Nc3cccc(F)c3)n2)c1`, the GI50 was 5.66 µM and the TGI was 24.6 µM.
Take `CCN(CC)CCNC(=O)c1c(C)[nH]c(/C=C2\C(=O)Nc3ccc(F)cc32)c1C`: the GI50 is > 10 µM and 3.26 µM and 4.12 µM; the TGI is > 10 µM and 6.98 µM and 10.9 µM.
In the case of `CCN(CC)CC(=O)N1CCc2c([nH]c3ccccc23)C1c1cccnc1` (stereo not drawn), the TGI was > 100 µM.
With `CCOC1Oc2ccccc2-c2oc(=O)c(Sc3ccc(C)cc3)cc21` (stereo not drawn), the GI50 is 17.9 µM and the TGI is > 100 µM.
On to `CC1CCCc2c1nn(C(=O)/C=C(\N)c1ccccc1)c2N` (stereo not drawn), for which the GI50 was 9.45 µM and the TGI stood at 41.5 µM.
For `O=c1c(Cl)c(Cl)cnn1CCc1ccncc1`, the TGI turned out to be 39.8 µM.
Same read-out and setting: under `Cc1ccc(S(=O)(=O)N/N=C(\c2nc3ccc([N+](=O)[O-])cc3[nH]c2=O)C(O)c2ccccc2Cl)cc1` (stereo not drawn) stands > 100 µM.
In the case of `COc1ccc(CC(C)C(C)Cc2ccc(OC)c(OC)c2)cc1OC` (stereo not drawn), the GI50 is 1130 µM and the TGI is > 1400 µM.
`Cc1ccc2c(c1)Sc1ccc(N=NN(C)C)cc1N2C`: the TGI is > 100 µM.
Same read-out and setting: under `O=C1C2=C(c3ccccc31)C(c1ccccc1Cl)N1C(=O)CCSC1=N2` (stereo not drawn) stands > 100 µM.
In the case of `Cc1ncc(C(=O)Nc2ccc(CN3CCN(C)CC3)c(C(F)(F)F)c2)cc1C#Cc1cnc(NC2CC2)c2ncccc12`, the GI50 is 0.874 µM and the TGI stood at 2.38 µM.
For `Cc1ccc2nc3c(Cl)c(C)c(=O)cc-3sc2c1`, the GI50 was 27.8 µM; the TGI is > 1 µM and 92.2 µM.
`O=C/C(=C(/Cl)c1ccc(O)cc1)c1ccccc1` came in with a TGI of 22 µM.
